Assay results as given in paper PMC12834961 (Scientific Reports, 2025).
pKd: −log10 of the molar value.

Target: epidermal growth factor receptor (EGFR) (Homo sapiens, UniProt P00533)
Test: SPR
Type: binding

epidermal growth factor receptor (EGFR), sequence (P00533 25-1210): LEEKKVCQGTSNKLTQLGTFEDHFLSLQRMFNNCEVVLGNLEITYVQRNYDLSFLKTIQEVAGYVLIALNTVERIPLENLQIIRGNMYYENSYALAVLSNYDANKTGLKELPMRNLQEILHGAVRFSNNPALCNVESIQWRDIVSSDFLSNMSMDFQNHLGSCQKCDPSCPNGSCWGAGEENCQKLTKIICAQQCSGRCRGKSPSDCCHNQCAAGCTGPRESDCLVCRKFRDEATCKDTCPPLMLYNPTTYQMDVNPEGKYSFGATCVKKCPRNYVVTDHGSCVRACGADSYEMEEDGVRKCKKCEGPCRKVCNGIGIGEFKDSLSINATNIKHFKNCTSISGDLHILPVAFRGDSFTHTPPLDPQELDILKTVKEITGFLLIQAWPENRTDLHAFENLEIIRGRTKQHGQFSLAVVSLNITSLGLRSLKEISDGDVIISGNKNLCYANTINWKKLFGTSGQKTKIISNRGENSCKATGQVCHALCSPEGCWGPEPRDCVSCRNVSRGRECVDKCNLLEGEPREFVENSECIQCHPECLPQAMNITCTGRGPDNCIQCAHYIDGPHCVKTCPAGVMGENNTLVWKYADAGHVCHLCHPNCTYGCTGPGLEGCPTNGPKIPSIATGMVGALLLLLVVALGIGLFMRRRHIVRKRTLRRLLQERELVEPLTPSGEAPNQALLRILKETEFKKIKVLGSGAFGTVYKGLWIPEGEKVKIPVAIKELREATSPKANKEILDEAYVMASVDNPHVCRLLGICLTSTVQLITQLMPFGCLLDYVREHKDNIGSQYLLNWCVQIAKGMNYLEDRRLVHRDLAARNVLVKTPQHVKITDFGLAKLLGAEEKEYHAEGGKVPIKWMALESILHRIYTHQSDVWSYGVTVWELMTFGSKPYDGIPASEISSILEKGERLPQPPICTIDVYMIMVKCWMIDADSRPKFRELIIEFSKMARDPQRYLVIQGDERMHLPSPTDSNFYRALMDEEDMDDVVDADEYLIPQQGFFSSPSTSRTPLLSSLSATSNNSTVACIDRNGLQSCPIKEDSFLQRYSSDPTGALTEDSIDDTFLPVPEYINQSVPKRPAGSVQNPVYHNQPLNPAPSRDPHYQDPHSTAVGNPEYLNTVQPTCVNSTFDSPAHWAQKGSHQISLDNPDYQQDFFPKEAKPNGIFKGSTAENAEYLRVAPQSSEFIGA

`O=c1c(-c2ccc(O[C@@H]3O[C@H](CO)[C@@H](O)[C@H](O)[C@H]3O)cc2)coc2cc(O)cc(O)c12` [Sop, Sophoricoside] showed a pKd of about 4.25.
